{"source": "patent US20170050957A1", "about": "“4-AMINO-6-(HETEROCYCLIC)PICOLINATES AND 6-AMINO-2-(HETEROCYCLIC)PYRIMIDINE-4-CARBOXYLATES AND THEIR USE AS HERBICIDES” (Dow AgroSciences LLC, priority 2013, published 2017)", "key": {"[1]": {"tested_on": "Key Grass and Sedge Weeds as well as Grass Crops", "experiment": "Post-emergent Test II herbicidal activity (Table 16)", "type": "in vivo", "details": "post-emergence, 336 h, 14 d; for pest or weed control at 35 g/ha: 35 g ai/ha; for pest or weed control at 70 g/ha: 70 g ai/ha; for pest or weed control at 140 g/ha: 140 g ai/ha", "procedure,_shortened": "(§1)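 Post-emergence spray; seedlings 7-21 d old, 1st-2nd true leaf; 187 L/ha; serial rates 1×-1/16×; solvent blank controls; subirrigated; visual % injury at 14 d.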"}, "[2]": {"tested_on": "Key Broadleaf Weed and Crop Species", "experiment": "Post-emergent Test II herbicidal activity (Table 15)", "type": "in vivo", "details": "post-emergence, 336 h, 14 d; for pest or weed control at 35 g/ha: 35 g ai/ha; for pest or weed control at 70 g/ha: 70 g ai/ha; for pest or weed control at 140 g/ha: 140 g ai/ha", "procedure,_shortened": "as §1"}, "[3]": {"details": "Cyperus esculentus, yellow nutsedge (Cyperus esculentus), read-out: Visual Growth Reduction (%) 14 Days After Application, CYPES"}, "[4]": {"details": "Echinochloa crus-galli, barnyardgrass (Echinochloa crus-galli), read-out: Visual Growth Reduction (%) 14 Days After Application, ECHCG"}, "[5]": {"details": "Oryza sativa, rice (Oryza sativa), read-out: Visual Growth Reduction (%) 14 Days After Application, ORYSA"}, "[6]": {"details": "Setaria faberi, giant foxtail (Setaria faberi), read-out: Visual Growth Reduction (%) 14 Days After Application, SETFA"}, "[7]": {"details": "Triticum aestivum, wheat, spring (Triticum aestivum), read-out: Visual Growth Reduction (%) 14 Days After Application, TRZAS"}, "[8]": {"details": "Zea mays, maize, corn (Zea mays), read-out: Visual Growth Reduction (%) 14 Days After Application, ZEAMX"}, "[9]": {"details": "Abutilon theophrasti, velvetleaf (Abutilon theophrasti), read-out: Visual Growth Reduction (%) 14 Days After Application, ABUTH"}, "[10]": {"details": "Amaranthus retroflexus, redroot pigweed (Amaranthus retroflexus), read-out: Visual Growth Reduction (%) 14 Days After Application, AMARE"}, "[11]": {"details": "Brassica napus, oilseed rape, canola (Brassica napus), read-out: Visual Growth Reduction (%) 14 Days After Application, BRSNN"}, "[12]": {"details": "Chenopodium album, lambsquarters (Chenopodium album), read-out: Visual Growth Reduction (%) 14 Days After Application, CHEAL"}, "[13]": {"details": "Euphorbia heterophylla, wild poinsettia (Euphorbia heterophylla), read-out: Visual Growth Reduction (%) 14 Days After Application, EPHHL"}, "[14]": {"details": "Helianthus annuus, sunflower (Helianthus annuus), read-out: Visual Growth Reduction (%) 14 Days After Application, HELAN"}}, "note": "Like-named read-outs stand apart in the source and are kept apart here.", "data": [{"smiles": "COC(=O)c1nc(-c2ccc3cc[nH]c3c2)c(Cl)c(N)c1Cl", "note": "[Compound 1.05]", "values": [{"measurement": "pest or weed control at 35 g/ha", "setting": "[1]; [3]", "result": "0 to 29", "unit": "%"}, {"measurement": "pest or weed control at 70 g/ha", "setting": "[1]; [3]", "result": "0 to 29", "unit": "%"}, {"measurement": "pest or weed control at 140 g/ha", "setting": "[1]; [3]", "result": "0 to 29", "unit": "%"}, {"measurement": "pest or weed control at 35 g/ha", "setting": "[1]; [4]", "result": "0 to 29", "unit": "%"}, {"measurement": "pest or weed control at 70 g/ha", "setting": "[1]; [4]", "result": "0 to 29", "unit": "%"}, {"measurement": "pest or weed control at 140 g/ha", "setting": "[1]; [4]", "result": "60 to 74", "unit": "%"}, {"measurement": "pest or weed control at 35 g/ha", "setting": "[1]; [5]", "result": "0 to 29", "unit": "%"}, {"measurement": "pest or weed control at 70 g/ha", "setting": "[1]; [5]", "result": "0 to 29", "unit": "%"}, {"measurement": "pest or weed control at 140 g/ha", "setting": "[1]; [5]", "result": "0 to 29", "unit": "%"}, {"measurement": "pest or weed control at 35 g/ha", "setting": "[1]; [6]", "result": "30 to 44", "unit": "%"}, {"measurement": "pest or weed control at 70 g/ha", "setting": "[1]; [6]", "result": "45 to 59", "unit": "%"}, {"measurement": "pest or weed control at 140 g/ha", "setting": "[1]; [6]", "result": "60 to 74", "unit": "%"}, {"measurement": "pest or weed control at 35 g/ha", "setting": "[1]; [7]", "result": "0 to 29", "unit": "%"}, {"measurement": "pest or weed control at 70 g/ha", "setting": "[1]; [7]", "result": "30 to 44", "unit": "%"}, {"measurement": "pest or weed control at 140 g/ha", "setting": "[1]; [7]", "result": "45 to 59", "unit": "%"}, {"measurement": "pest or weed control at 35 g/ha", "setting": "[1]; [8]", "result": "0 to 29", "unit": "%"}, {"measurement": "pest or weed control at 70 g/ha", "setting": "[1]; [8]", "result": "30 to 44", "unit": "%"}, {"measurement": "pest or weed control at 140 g/ha", "setting": "[1]; [8]", "result": "45 to 59", "unit": "%"}, {"measurement": "melting point", "result": "174 to 179", "unit": "°C"}, {"measurement": "pest or weed control at 35 g/ha", "setting": "[2]; [9]", "result": "45 to 59", "unit": "%"}, {"measurement": "pest or weed control at 70 g/ha", "setting": "[2]; [9]", "result": "95 to 100", "unit": "%"}, {"measurement": "pest or weed control at 140 g/ha", "setting": "[2]; [9]", "result": "85 to 94", "unit": "%"}, {"measurement": "pest or weed control at 35 g/ha", "setting": "[2]; [10]", "result": "60 to 74", "unit": "%"}, {"measurement": "pest or weed control at 70 g/ha", "setting": "[2]; [10]", "result": "75 to 84", "unit": "%"}, {"measurement": "pest or weed control at 140 g/ha", "setting": "[2]; [10]", "result": "95 to 100", "unit": "%"}, {"measurement": "pest or weed control at 35 g/ha", "setting": "[2]; [11]", "result": "30 to 44", "unit": "%"}, {"measurement": "pest or weed control at 70 g/ha", "setting": "[2]; [11]", "result": "45 to 59", "unit": "%"}, {"measurement": "pest or weed control at 140 g/ha", "setting": "[2]; [11]", "result": "60 to 74", "unit": "%"}, {"measurement": "pest or weed control at 35 g/ha", "setting": "[2]; [12]", "result": "85 to 94", "unit": "%"}, {"measurement": "pest or weed control at 70 g/ha", "setting": "[2]; [12]", "result": "95 to 100", "unit": "%"}, {"measurement": "pest or weed control at 140 g/ha", "setting": "[2]; [12]", "result": "95 to 100", "unit": "%"}, {"measurement": "pest or weed control at 35 g/ha", "setting": "[2]; [13]", "result": "30 to 44", "unit": "%"}, {"measurement": "pest or weed control at 70 g/ha", "setting": "[2]; [13]", "result": "30 to 44", "unit": "%"}, {"measurement": "pest or weed control at 140 g/ha", "setting": "[2]; [13]", "result": "45 to 59", "unit": "%"}, {"measurement": "pest or weed control at 35 g/ha", "setting": "[2]; [14]", "result": "95 to 100", "unit": "%"}, {"measurement": "pest or weed control at 70 g/ha", "setting": "[2]; [14]", "result": "95 to 100", "unit": "%"}, {"measurement": "pest or weed control at 140 g/ha", "setting": "[2]; [14]", "result": "95 to 100", "unit": "%"}]}, {"smiles": "COC(=O)c1nc(-c2cc3occc3cc2F)c(F)c(N)c1Cl", "note": "[Compound 2.10]", "values": [{"measurement": "pest or weed control at 35 g/ha", "setting": "[1]; [3]", "result": "0 to 29", "unit": "%"}, {"measurement": "pest or weed control at 70 g/ha", "setting": "[1]; [3]", "result": "0 to 29", "unit": "%"}, {"measurement": "pest or weed control at 140 g/ha", "setting": "[1]; [3]", "result": "30 to 44", "unit": "%"}, {"measurement": "pest or weed control at 35 g/ha", "setting": "[1]; [4]", "result": "60 to 74", "unit": "%"}, {"measurement": "pest or weed control at 70 g/ha", "setting": "[1]; [4]", "result": "60 to 74", "unit": "%"}, {"measurement": "pest or weed control at 140 g/ha", "setting": "[1]; [4]", "result": "85 to 94", "unit": "%"}, {"measurement": "pest or weed control at 35 g/ha", "setting": "[1]; [5]", "result": "0 to 29", "unit": "%"}, {"measurement": "pest or weed control at 70 g/ha", "setting": "[1]; [5]", "result": "30 to 44", "unit": "%"}, {"measurement": "pest or weed control at 140 g/ha", "setting": "[1]; [5]", "result": "30 to 44", "unit": "%"}, {"measurement": "pest or weed control at 35 g/ha", "setting": "[1]; [6]", "result": "60 to 74", "unit": "%"}, {"measurement": "pest or weed control at 70 g/ha", "setting": "[1]; [6]", "result": "60 to 74", "unit": "%"}, {"measurement": "pest or weed control at 140 g/ha", "setting": "[1]; [6]", "result": "75 to 84", "unit": "%"}, {"measurement": "pest or weed control at 35 g/ha", "setting": "[1]; [7]", "result": "0 to 29", "unit": "%"}, {"measurement": "pest or weed control at 70 g/ha", "setting": "[1]; [7]", "result": "30 to 44", "unit": "%"}, {"measurement": "pest or weed control at 140 g/ha", "setting": "[1]; [7]", "result": "60 to 74", "unit": "%"}, {"measurement": "pest or weed control at 35 g/ha", "setting": "[1]; [8]", "result": "0 to 29", "unit": "%"}, {"measurement": "pest or weed control at 70 g/ha", "setting": "[1]; [8]", "result": "30 to 44", "unit": "%"}, {"measurement": "pest or weed control at 140 g/ha", "setting": "[1]; [8]", "result": "45 to 59", "unit": "%"}, {"measurement": "melting point", "result": 109, "unit": "°C"}, {"measurement": "pest or weed control at 35 g/ha", "setting": "[2]; [9]", "result": "60 to 74", "unit": "%"}, {"measurement": "pest or weed control at 70 g/ha", "setting": "[2]; [9]", "result": "60 to 74", "unit": "%"}, {"measurement": "pest or weed control at 140 g/ha", "setting": "[2]; [9]", "result": "85 to 94", "unit": "%"}, {"measurement": "pest or weed control at 35 g/ha", "setting": "[2]; [10]", "result": "85 to 94", "unit": "%"}, {"measurement": "pest or weed control at 70 g/ha", "setting": "[2]; [10]", "result": "95 to 100", "unit": "%"}, {"measurement": "pest or weed control at 140 g/ha", "setting": "[2]; [10]", "result": "95 to 100", "unit": "%"}, {"measurement": "pest or weed control at 35 g/ha", "setting": "[2]; [11]", "result": "30 to 44", "unit": "%"}, {"measurement": "pest or weed control at 70 g/ha", "setting": "[2]; [11]", "result": "60 to 74", "unit": "%"}, {"measurement": "pest or weed control at 140 g/ha", "setting": "[2]; [11]", "result": "75 to 84", "unit": "%"}, {"measurement": "pest or weed control at 35 g/ha", "setting": "[2]; [12]", "result": "85 to 94", "unit": "%"}, {"measurement": "pest or weed control at 70 g/ha", "setting": "[2]; [12]", "result": "95 to 100", "unit": "%"}, {"measurement": "pest or weed control at 140 g/ha", "setting": "[2]; [12]", "result": "85 to 94", "unit": "%"}, {"measurement": "pest or weed control at 35 g/ha", "setting": "[2]; [13]", "result": "95 to 100", "unit": "%"}, {"measurement": "pest or weed control at 70 g/ha", "setting": "[2]; [13]", "result": "95 to 100", "unit": "%"}, {"measurement": "pest or weed control at 140 g/ha", "setting": "[2]; [13]", "result": "95 to 100", "unit": "%"}, {"measurement": "pest or weed control at 35 g/ha", "setting": "[2]; [14]", "result": "75 to 84", "unit": "%"}, {"measurement": "pest or weed control at 70 g/ha", "setting": "[2]; [14]", "result": "85 to 94", "unit": "%"}, {"measurement": "pest or weed control at 140 g/ha", "setting": "[2]; [14]", "result": "95 to 100", "unit": "%"}]}]}
